Reference: patent US12655131B2, “Pyrazinecarboxamide analog compounds for use in treating cancer” (NOVAPANO, LLC, priority 2019, dated 2026)

Key:
[1] = Microsome stability, mouse liver microsomes; type: in vitro ADME; settings: NADPH, 37 °C, pH 7.4, read-out: mLM CLint (μg/min/mg)
Experimental: (§1) In a 96 deep well plate, 2.5 μL of 20 μM of each test compound in potassium phosphate buffer (pH 7,4) with 2% 1:9 DMSO:acetonitrile were added to 5 μL of 5 mg/mL microsomes (human liver microsomes (hLM), rat liver microsomes (rLM), or mouse liver microsomes (mLM)) and 37.5 μL of 100 mM prewarmed phosphate buffer (pH 7.4). Time point 0 (T0) samples were immediately quenched with 200 μL of chilled acetonitrile containing 50 ng/mL of internal standard. 5 4, of 10 mM NADPH was added to all other samples to start the reaction. The plate was incubated in a reciprocating water bath at 37 ° C. on 50 rpm for the duration of the assay. The remaining samples were quenched with 200 μL of chilled acetonitrile containing 50 ng/mL of internal standard at various timepoints. The samples were analyzed by LC-MS/MS (Sciex API 4500 QTrap). The % remaining, terminal elimination rate constant (K), half-life (t1/2), and intrinsic clearance (CLint) were calculated.

[2] = tested on: HCT 116 colorectal carcinoma cells; experiment: Cell proliferation assay (resazurin) in HCT 116 cells; type: cell-based; settings: Homo sapiens, 72 hr compound incubation, inhibition of proliferation
Experimental: (§2) HCT 116 colorectal carcinoma cells (ECACC/Sigma-Aldrich #91091005) were seeded in medium (McCoy's 5a+10% FBS) at a cell count of 1500 cells per 100 μL per well in a 96 well edge plate (ThermoFisher #167425). Cells were cultured at 37° C. for 24 hr in 5% CO2 environment (culture conditions) in a Nuaire incubator (humidified). Serially diluted test compounds (100 μL) within the desired testing concentration range (e.g., 0.014-30 μM) were added to the culture plate and the cells were further incubated in culture conditions for 72 hr. The experiment was terminated at the designated incubation time by replacing the medium with 100 μL, of 1 mM resazurin (Sigma-Aldrich #R7017) prepared in culture medium, and the plates were further incubated in culture conditions for 4-6 hr. Fluorescence was recorded using a multimodal plate reader (Biotek Synergy Neo) at an excitation wavelength of 535 nm and emission wavelength of 590 nm to obtain relative fluorescence units.
(§3) Data were analyzed as follows: the background fluorescence (blank containing only medium) value was subtracted from each reading and normalized with the vehicle control ([…]treated cells) to obtain percent survival/proliferation. Percent survival was subtracted from 100 to get the percent inhibition of proliferation which was used to calculate IC50 values.

[3] = Microsome stability, human liver microsomes; type: in vitro ADME; settings: NADPH, 37 °C, pH 7.4, read-out: hLM CLint (μg/min/mg)
Experimental: as §1

[4] = tested on: MIA PaCa-2 human pancreatic carcinoma cells; experiment: Cell proliferation assay (resazurin) in MIA PaCa-2 cells; type: cell-based; settings: 96 hr compound incubation, inhibition of proliferation
Experimental: as §2, §3
Testing in MIA PaCa-2 human pancreatic carcinoma cells (ATCC® CRL-1420™) was done identically, except that the medium used was DMFM+10% FBS+2.5% horse serum, the cells were seeded at a cell count of 3000 cells per 100 μL per well and the test compound incubation time was 72 or 96 hr. The potency of compounds in other cell lines may be determined in an analogous manner.

[5] = Microsome stability, rat liver microsomes; type: in vitro ADME; settings: NADPH, 37 °C, pH 7.4, read-out: rLM CLint (μg/min/mg)
Experimental: as §1

Row | microsomal CLint at 1 µM [1] [µL/min/mg] | IC50 [2] [µM] | microsomal CLint at 1 µM [3] [µL/min/mg] | IC50 [4] [µM] | microsomal CLint at 1 µM [5] [µL/min/mg] | Structure (SMILES)
1 | 176 | 16.3 | 258 | 30.9 | 201 | Nc1nc(NCc2ccc(I)cc2)c(Cl)nc1C(=O)NCCN1CCN(Cc2ccccc2)CC1 [Compound 1, 3-amino-N-(2-(4-benzylpiperazin-1-yl)ethyl)-6-chloro-5-(4-iodobenzylamino) pyrazine-2-carboxamide]
2 | 67 | 0.69 | 52 | 1.9 | 29 | N/C(=N\C(=O)c1nc(Cl)c(NCc2ccc(I)cc2)nc1N)NCC1CCN(CCc2ccccc2)CC1 [Compound 51, 3-amino-N-(amino(((1-phenethylpiperidin-1-yl)methyl)amino)methylene)-6-chloro-5-((4-iodobenzyl)amino)pyrazine-2-carboxamide]
3 | 81 | 1.33 | 20 | 2.92 | 49 | N/C(=N\C(=O)c1nc(Cl)c(NCc2ccc(I)cc2)nc1N)NCCCOc1ccc(Cl)cc1 [Compound 52, 3-amino-4-(amino(3-(4-chlorophenoxy)propylamino)methylene)-6-chloro-5-(4-iodobenzylamino)pyrazine-2-carboxamide]
